What is called IC50 is the concentration that inhibits the measured activity by half. The low end stands for higher potency, the high end for lower potency. By solubility is commonly meant the dissolved amount per volume that the medium holds. A lower solubility goes with a poorly soluble substance.

For one series, the system named is MGC-803. The series is described as follows: MTT cytotoxicity assay, MGC-803 cells. In kind it is cell-based. As to conditions: Homo sapiens, 48 h exposure. Here is the method:
(§1) Taking solubility of the derivatives into consideration, BQ and GQ were selected for the primary cytotoxicity study. According to the result of the primary cytotoxicity study, the cytotoxicity of GQ on NCI-H446, A549, MGC-803 and SGC-7901 cell lines was further investigated. To justify the effectiveness of BQ and GQ, cytotoxicity of the parent compound quercetin on all the cell lines used in this study was determined either. Briefly, 8000 cells with 0.1 mL medium were seeded in 96-well microplates. The derivatives or quercetin were dissolved in DMSO (50 mM) and then diluted with the medium to a series of testing concentrations. After exposure to the derivatives or quercetin for 48 h, cells were carefully washed by PBS three times and then 0.1 mL MTT (0.5 mg/mL) was added to each well. DMSO was used as solvent for following spectrum analysis at 570 nm. Proliferation values were calculated with the formula as follow: proliferation = (Atest-Ablank)/(Acontrol-Ablank). According to the proliferation data, all IC50 values were calculated by SPSS software using probit regression assay.
(In general: Formazan colour is commonly taken as a measure of viable cells.)

A short description of series [1]: Solubility in DMEM medium by turbidimetry. It is filed as physicochemical. As to conditions: turbidimetry at 630 nm; for solubility at 48 h: 37 °C, aqueous buffer, kinetic from dmso stock. Here is the method:
Solubility of the derivatives was evaluated by turbidimetry as previously described ([7]). Briefly, derivatives were dissolved in DMSO at a final concentration of 50 mM, and then diluted by DMEM medium at final concentrations of 20, 40, 60, 80, 100, 120, 140, 160, 180 and 200 μM. After these solutions were incubated at 37 ℃ for 48 h, absorbances of them at 630 nm were measured.

For a further series, the system named is A549. The series is described as follows: MTT cytotoxicity assay, A549 cells. In kind it is cell-based. As to conditions: Homo sapiens, 48 h exposure. Here is the method:
as §1

The subject of another series is MCF-7 cells. The series is described as follows: MTT cytotoxicity assay, MCF-7 cells. In kind it is cell-based, human. As to conditions: for IC50: Homo sapiens, MCF7, MCF-7 cells, 48 h exposure, MTT. Here is the method:
as §1

For the next series, the system named is NCI-H446. Briefly: MTT cytotoxicity assay, NCI-H446 cells. In kind it is cell-based. As to conditions: Homo sapiens, 48 h exposure. Here is the method: as §1
The next series deals with Caco-2 cells. Briefly: MTT cytotoxicity assay, Caco-2 cells. In kind it is cell-based. As to conditions: Homo sapiens, 48 h exposure. Here is the method:
as §1

In a further series the test system is SGC-7901. The series is described as follows: MTT cytotoxicity assay, SGC-7901 cells. It is filed as cell-based. As to conditions: Homo sapiens, 48 h exposure. Here is the method: as §1
A further series has as its system cancer cells. As to conditions: cited from earlier work.
The mark [2] stands for this setting: compared with quercetin, ref [5].

Converted amounts (≈) assume the structure as drawn.

As to `CC(C)=CCC/C(C)=C/COc1cc(O)c2c(=O)c(O)c(-c3ccc(O)c(O)c3)oc2c1` [GQ, 7-O-geranylquercetin], the IC50 came out at 25.4 µM with MGC-803; 29.5 µM with A549; 20.2 µM in the series with MCF-7 cells; 27.6 µM in the series with NCI-H446; 43.7 µM in the series on Caco-2 cells; 18.5 µM with SGC-7901. The solubility at 48 h in series [1] is approximately 180 µM (≈ 78.9 µg/mL).

Regarding `CC(=O)Oc1cc(O)c2c(=O)c(OC(C)=O)c(-c3ccc(OC(C)=O)c(OC(C)=O)c3)oc2c1` [3,7,3′,4′-O-tetraacetylquercetin], in the series with cancer cells (setting [2]), the “cytotoxicity compared with quercetin” value is listed as “about 3 fold”.

Regarding `O=c1c(O)c(-c2cc(O)c(O)c(S(=O)(=O)O)c2)oc2c(S(=O)(=O)O)c(O)cc(O)c12` [quercetin-5′,8-disulfonate], in the series with cancer cells (relative to quercetin, ref [4]), the “increased cytotoxicity relative to quercetin” value was “about 1.5 fold”.

Take `COc1cc(O)c2c(=O)c(OC)c(-c3ccc(OC)c(OC)c3)oc2c1` [3,7,3′,4′-O-tetramethylquercetin]: the “cytotoxicity compared with quercetin (in words)” value in the series with cancer cells (setting [2]) is on record as “decreases the cytotoxicity”.

Consider `O=c1c(O)c(-c2ccc(O)c(O)c2)oc2cc(OCC=Cc3ccccc3)cc(O)c12` [CQ, 7-O-cinnamylquercetin], for which the “solubility in DMEM medium (in words)” value in series [1] (37 ℃, 48 h) is given as “almost insoluble”.

Turning to `CCCCOc1cc(O)c2c(=O)c(O)c(-c3ccc(O)c(O)c3)oc2c1` [BQ, 7-O-Butylquercetin], the solubility at 48 h in series [1] was approximately 180 µM (≈ 64.5 µg/mL). The IC50 with MCF-7 cells was determined as 38.6 µM; in the series on Caco-2 cells it was 66.8 µM.

Turning to `O=c1c(O)c(-c2ccc(O)c(O)c2)oc2cc(O)cc(O)c12` [Quercetin], the IC50 with MGC-803 stood at 80.6 µM; in the series on A549, 77.2 µM; in the series with MCF-7 cells, 343 µM; in the series on NCI-H446, 68.9 µM; in the series on Caco-2 cells, 340 µM; with SGC-7901, 75.7 µM.

Compound `C=CCOc1cc(O)c2c(=O)c(O)c(-c3ccc(O)c(O)c3)oc2c1` [AQ, 7-O-allylquercetin] had a solubility at 48 h in series [1] of approximately 140 µM (≈ 47.9 µg/mL). Further, the “inhibition rate to MCF-7 cells” value with MCF-7 cells (at the highest concentration) is reported as “less than 50%”.
